Measured values: patent US20230248741A1, “Compositions and Methods for Lowering Triglycerides in a Subject with Reduced Kidney Function and Diabetes Mellitus” (Amarin Pharmaceuticals Ireland Limited, priority 2018, published 2023)

How the values were obtained:
[1] = test system: patients with eGFR <90 mL/min/1.73 m^2 for ≥3 months and hsCRP ≥2.0 mg/L; test: ANCHOR post-hoc: lipid parameters; type: in vivo, human; settings: 4 g/day; 12 weeks; P<0.0001
Experimental: CVD-related (e.g., atherogenic) parameters were analyzed in a post-hoc study of 152 patients from the multi-center, placebo-controlled, randomized double-blind, 12-week study described in Example 1. These 152 patients have reduced kidney reduced function (e.g., eGFR<90 mL/min/1.73 m^2 for ≥3 months) and hsCRP≥2.0 mg/L.
Subjects: 72 patients were randomized to E-EPA and 80 patients were randomized to placebo. In total, atherogenic parameters were analyzed in all 152 patients, 54% of which were male and 99% of which were white. The mean age of the 152 patients was 64 years old.
The primary objective of this post-hoc study, was to determine if and how 4 g of daily of >96% E-EPA, compared to placebo, affects patients with reduced kidney function, elevated hsCRP (e.g, hsCRP≥2.0 mg/L), and high triglyceride levels. […] CVD-parameters were analyzed for median difference in percent change from baseline to week 12 in subjects receiving 4 g/day of E-EPA and those receiving the placebo.
Analysis: The median difference in lipid/lipoprotein, apolipoprotein, and inflammatory parameters were determined from baseline to week 12 for 4/g day of E-EPA compared to placebo.

[2] = Essential fatty acids in plasma and RBC by gas chromatography, 6-week AAMI study; type: in vivo, human
Experimental: Blood samples (10 mL) were collected at Visit 1 (screening) and at Visits 4, 5, and 6. Analysis was performed by MSR Lipid Analysis, Scottish Crop Research Institute, Dundee, UK. The screening sample acted as baseline for the EFA measurements. Lipid was extracted from plasma, serum, and RBC suspensions and converted into fatty acid methyl esters which were analyzed by gas chromatography to give fatty acid profiles as micrograms fatty acid per gram of sample (mFA/g) and normalized area percent.
RBC and plasma EFA data were collected at baseline, Day 14, 28, and 42 and summarized by visit for each treatment group. Change from baseline and percent change from baseline were also summarized. ANCOVA comparison of E-EPA dose groups and E-EPA versus placebo was performed.
Notable changes for these parameters occurred in the E-EPA treatment groups at Days 14, 28, and 42 compared to placebo.

CC/C=C\C/C=C\C/C=C\C/C=C\C/C=C\CCCC(=O)OCC [E-EPA, ethyl eicosapentaenoate]
reduction of triglycerides compared to placebo [1]: about 16.9% | AA Plasma Mean change from Baseline ([2]; 1 g daily, Day 14): -9.7 µg/g | AA RBC Mean change from Baseline ([2]; 1 g daily, Day 14): -8.1 µg/g | DGLA Plasma Mean change from Baseline ([2]; 1 g daily, Day 14): -10.4 µg/g | DGLA RBC Mean change from Baseline ([2]; 1 g daily, Day 14): -2.7 µg/g | DHA Plasma Mean change from Baseline ([2]; 1 g daily, Day 14): -6.4 µg/g | DHA RBC Mean change from Baseline ([2]; 1 g daily, Day 14): -4.6 µg/g | DPAn-3 Plasma Mean change from Baseline ([2]; 1 g daily, Day 14): 7.5 µg/g | DPAn-3 RBC Mean change from Baseline ([2]; 1 g daily, Day 14): 0.9 µg/g | AA Plasma Mean change from Baseline ([2]; 1 g daily, Day 28): -11.3 µg/g | AA RBC Mean change from Baseline ([2]; 1 g daily, Day 28): -17.0 µg/g | DGLA Plasma Mean change from Baseline ([2]; 1 g daily, Day 28): -10.6 µg/g | DGLA RBC Mean change from Baseline ([2]; 1 g daily, Day 28): -3.8 µg/g | DHA Plasma Mean change from Baseline ([2]; 1 g daily, Day 28): -6.6 µg/g | DHA RBC Mean change from Baseline ([2]; 1 g daily, Day 28): -6.4 µg/g | DPAn-3 Plasma Mean change from Baseline ([2]; 1 g daily, Day 28): 8.9 µg/g | DPAn-3 RBC Mean change from Baseline ([2]; 1 g daily, Day 28): 3.3 µg/g | AA Plasma Mean change from Baseline ([2]; 1 g daily, Day 42): -8.7 µg/g | AA RBC Mean change from Baseline ([2]; 1 g daily, Day 42): -14.2 µg/g | DGLA Plasma Mean change from Baseline ([2]; 1 g daily, Day 42): -9.4 µg/g | DGLA RBC Mean change from Baseline ([2]; 1 g daily, Day 42): -3.5 µg/g | DHA Plasma Mean change from Baseline ([2]; 1 g daily, Day 42): -5.4 µg/g | DHA RBC Mean change from Baseline ([2]; 1 g daily, Day 42): -7.0 µg/g | DPAn-3 Plasma Mean change from Baseline ([2]; 1 g daily, Day 42): 11.3 µg/g | DPAn-3 RBC Mean change from Baseline ([2]; 1 g daily, Day 42): 6.5 µg/g | AA Plasma Baseline Mean ([2]; 1 g daily, baseline): 202.5 µg/g | AA RBC Baseline Mean ([2]; 1 g daily, baseline): 171.2 µg/g | DGLA Plasma Baseline Mean ([2]; 1 g daily, baseline): 51.2 µg/g | DGLA RBC Baseline Mean ([2]; 1 g daily, baseline): 23.0 µg/g | DHA Plasma Baseline Mean ([2]; 1 g daily, baseline): 73.1 µg/g | DHA RBC Baseline Mean ([2]; 1 g daily, baseline): 66.5 µg/g | DPAn-3 Plasma Baseline Mean ([2]; 1 g daily, baseline): 21.1 µg/g | DPAn-3 RBC Baseline Mean ([2]; 1 g daily, baseline): 34.1 µg/g | AA Plasma LS Mean, 1 or 2 g versus 4 g ([2]; 1 g versus 4 g): 4.2 µg/g | AA RBC LS Mean, 1 or 2 g versus 4 g ([2]; 1 g versus 4 g): 8.4 µg/g | DGLA Plasma LS Mean, 1 or 2 g versus 4 g ([2]; 1 g versus 4 g): 3.7 µg/g | DGLA RBC LS Mean, 1 or 2 g versus 4 g ([2]; 1 g versus 4 g): 1.5 µg/g | DHA Plasma LS Mean, 1 or 2 g versus 4 g ([2]; 1 g versus 4 g): -0.8 µg/g | DHA RBC LS Mean, 1 or 2 g versus 4 g ([2]; 1 g versus 4 g): 1.0 µg/g | DPAn-3 Plasma LS Mean, 1 or 2 g versus 4 g ([2]; 1 g versus 4 g): -15.1 µg/g | DPAn-3 RBC LS Mean, 1 or 2 g versus 4 g ([2]; 1 g versus 4 g): -6.2 µg/g | AA Plasma Mean change from Baseline ([2]; 2 g daily, Day 14): -13.9 µg/g | AA RBC Mean change from Baseline ([2]; 2 g daily, Day 14): -3.1 µg/g | DGLA Plasma Mean change from Baseline ([2]; 2 g daily, Day 14): -14.1 µg/g | DGLA RBC Mean change from Baseline ([2]; 2 g daily, Day 14): -2.6 µg/g | DHA Plasma Mean change from Baseline ([2]; 2 g daily, Day 14): -5.4 µg/g | DHA RBC Mean change from Baseline ([2]; 2 g daily, Day 14): -2.0 µg/g | DPAn-3 Plasma Mean change from Baseline ([2]; 2 g daily, Day 14): 17.4 µg/g | DPAn-3 RBC Mean change from Baseline ([2]; 2 g daily, Day 14): 5.6 µg/g | AA Plasma Mean change from Baseline ([2]; 2 g daily, Day 28): 21.6 µg/g | AA RBC Mean change from Baseline ([2]; 2 g daily, Day 28): -14.1 µg/g | DGLA Plasma Mean change from Baseline ([2]; 2 g daily, Day 28): -16.2 µg/g | DGLA RBC Mean change from Baseline ([2]; 2 g daily, Day 28): -4.5 µg/g | DHA Plasma Mean change from Baseline ([2]; 2 g daily, Day 28): -8.1 µg/g | DHA RBC Mean change from Baseline ([2]; 2 g daily, Day 28): -6.2 µg/g | DPAn-3 Plasma Mean change from Baseline ([2]; 2 g daily, Day 28): 19.4 µg/g | DPAn-3 RBC Mean change from Baseline ([2]; 2 g daily, Day 28): 9.4 µg/g | AA Plasma Mean change from Baseline ([2]; 2 g daily, Day 42): -27.3 µg/g | AA RBC Mean change from Baseline ([2]; 2 g daily, Day 42): -18.8 µg/g | DGLA Plasma Mean change from Baseline ([2]; 2 g daily, Day 42): -17.3 µg/g | DGLA RBC Mean change from Baseline ([2]; 2 g daily, Day 42): -5.3 µg/g | DHA Plasma Mean change from Baseline ([2]; 2 g daily, Day 42): -6.0 µg/g | DHA RBC Mean change from Baseline ([2]; 2 g daily, Day 42): -6.3 µg/g | DPAn-3 Plasma Mean change from Baseline ([2]; 2 g daily, Day 42): 19.3 µg/g | DPAn-3 RBC Mean change from Baseline ([2]; 2 g daily, Day 42): 13.2 µg/g | AA Plasma Baseline Mean ([2]; 2 g daily, baseline): 227.3 µg/g | AA RBC Baseline Mean ([2]; 2 g daily, baseline): 172.8 µg/g | DGLA Plasma Baseline Mean ([2]; 2 g daily, baseline): 53.5 µg/g | DGLA RBC Baseline Mean ([2]; 2 g daily, baseline): 23.0 µg/g | DHA Plasma Baseline Mean ([2]; 2 g daily, baseline): 75.1 µg/g | DHA RBC Baseline Mean ([2]; 2 g daily, baseline): 64.8 µg/g | DPAn-3 Plasma Baseline Mean ([2]; 2 g daily, baseline): 19.7 µg/g | DPAn-3 RBC Baseline Mean ([2]; 2 g daily, baseline): 33.2 µg/g | AA Plasma LS Mean, 1 or 2 g versus 4 g ([2]; 2 g versus 4 g): 15.6 µg/g | AA RBC LS Mean, 1 or 2 g versus 4 g ([2]; 2 g versus 4 g): 9.8 µg/g | DGLA Plasma LS Mean, 1 or 2 g versus 4 g ([2]; 2 g versus 4 g): 2.5 µg/g | DGLA RBC LS Mean, 1 or 2 g versus 4 g ([2]; 2 g versus 4 g): 1.5 µg/g | DHA Plasma LS Mean, 1 or 2 g versus 4 g ([2]; 2 g versus 4 g): 1.5 µg/g | DHA RBC LS Mean, 1 or 2 g versus 4 g ([2]; 2 g versus 4 g): 1.0 µg/g | DPAn-3 Plasma LS Mean, 1 or 2 g versus 4 g ([2]; 2 g versus 4 g): -9.5 µg/g | DPAn-3 RBC LS Mean, 1 or 2 g versus 4 g ([2]; 2 g versus 4 g): -2.5 µg/g | AA Plasma Mean (SD) change from Baseline ([2]; 4 g daily, Day 14): −27.2 (28.89) μg/g | AA RBC Mean (SD) change from Baseline ([2]; 4 g daily, Day 14): −15.7 (26.76) μg/g | DGLA Plasma Mean change from Baseline ([2]; 4 g daily, Day 14): -22.9 µg/g | DGLA RBC Mean change from Baseline ([2]; 4 g daily, Day 14): -5.3 µg/g | DHA Plasma Mean change from Baseline ([2]; 4 g daily, Day 14): -10.3 µg/g | DHA RBC Mean change from Baseline ([2]; 4 g daily, Day 14): -6.9 µg/g | DPAn-3 Plasma Mean change from Baseline ([2]; 4 g daily, Day 14): 24.5 µg/g | DPAn-3 RBC Mean change from Baseline ([2]; 4 g daily, Day 14): 5.4 µg/g | AA Plasma Mean (SD) change from Baseline ([2]; 4 g daily, Day 28): −43.7 (32.24) μg/g | AA RBC Mean (SD) change from Baseline ([2]; 4 g daily, Day 28): −22.8 (29.56) μg/g | DGLA Plasma Mean change from Baseline ([2]; 4 g daily, Day 28): -24.2 µg/g | DGLA RBC Mean change from Baseline ([2]; 4 g daily, Day 28): -7.1 µg/g | DHA Plasma Mean change from Baseline ([2]; 4 g daily, Day 28): -13.5 µg/g | DHA RBC Mean change from Baseline ([2]; 4 g daily, Day 28): -8.7 µg/g | DPAn-3 Plasma Mean change from Baseline ([2]; 4 g daily, Day 28): 29.7 µg/g | DPAn-3 RBC Mean change from Baseline ([2]; 4 g daily, Day 28): 12.4 µg/g | AA Plasma Mean (SD) change from Baseline ([2]; 4 g daily, Day 42): −48.3 (22.20) μg/g | AA RBC Mean (SD) change from Baseline ([2]; 4 g daily, Day 42): −34.4 (31.44) μg/g | DGLA Plasma Mean change from Baseline ([2]; 4 g daily, Day 42): -22.5 µg/g | DGLA RBC Mean change from Baseline ([2]; 4 g daily, Day 42): -8.0 µg/g | DHA Plasma Mean change from Baseline ([2]; 4 g daily, Day 42): -13.8 µg/g | DHA RBC Mean change from Baseline ([2]; 4 g daily, Day 42): -13.8 µg/g | DPAn-3 Plasma Mean change from Baseline ([2]; 4 g daily, Day 42): 32.0 µg/g | DPAn-3 RBC Mean change from Baseline ([2]; 4 g daily, Day 42): 16.2 µg/g | AA Plasma Baseline Mean (SD) ([2]; 4 g daily, baseline): 220.9 (42.80) μg/g | AA RBC Baseline Mean (SD) ([2]; 4 g daily, baseline): 171.0 (25.17) μg/g | DGLA Plasma Baseline Mean ([2]; 4 g daily, baseline): 57.1 µg/g | DGLA RBC Baseline Mean ([2]; 4 g daily, baseline): 24.0 µg/g | DHA Plasma Baseline Mean ([2]; 4 g daily, baseline): 78.8 µg/g | DHA RBC Baseline Mean ([2]; 4 g daily, baseline): 68.3 µg/g | DPAn-3 Plasma Baseline Mean ([2]; 4 g daily, baseline): 21.7 µg/g | DPAn-3 RBC Baseline Mean ([2]; 4 g daily, baseline): 34.5 µg/g
